Data reported in US20240336654A1, “ANTIMICROBIAL PEPTIDOMIMETICS” (SPEXIS AG, priority 2021, published 2024).
Where a SMILES comes first, the peptide text is derived from it. Bridges are numbered along the chain shown (N, C = ends). [ ]: non-standard residue; d: D form. The star is where a group is joined. Val(Nα-amidino) = CC(C)[C@H](NC(=N)N)C(=O)*; Dab(iPr) = CC(C)NCC[C@H](N)C(=O)O; Hyp = O=C(O)[C@@H]1C[C@@H](O)CN1; Cha = N[C@@H](CC1CCCCC1)C(=O)O; Cit = NC(=O)NCCC[C@H](N)C(=O)O; Pen = CC(C)(S)[C@H](N)C(=O)O; dDab = NCC[C@@H](N)C(=O)O; Nle = CCCC[C@H](N)C(=O)O; Orn = NCCC[C@H](N)C(=O)O; Dab = NCC[C@H](N)C(=O)O

Key:
Format in all cases: cell-based
[1] = test system: human red blood cells (hRBC); conditions: red cells of human, 1 h, 200 μg/mL
Summary of the method: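 Peptides at 200 μg/mL incubated 1 h at 37 °C with 20% (v/v) washed human RBC, shaking. Hemolysis from supernatant OD540, expressed as percent of 2.5% Triton X-100 lysis, with PBS as 0%.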

[2] = test system: Escherichia coli MCR-1 Af 45; conditions: MCR-1 Af 45
Summary of the method: (§1)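 The MIC is the lowest peptide concentration, in μg/mL, with no visible growth after 18-20 h incubation at 35 °C. Serial two-fold peptide dilutions in water with 0.002% P-80 final were added to bacteria in cation-adjusted MHII broth, about 5×10^5 CFU/mL, following modified CLSI microdilution.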

[3] = test system: Klebsiella pneumoniae SSI3010; conditions: SSI3010
Summary of the method: as §1

[4] = test system: Escherichia coli ATCC 25922; conditions: ATCC 25922
Summary of the method: as §1

Row | Escherichia coli MCR-1 Af45 MIC [2] | Klebsiella pneumoniae SSI3010 MIC [3] | Escherichia coli ATCC 25922 MIC [4] | Structure (SMILES) | Hemolysis at 0.2 g/L [1]
1 | 0.25 µg/mL | 0.5 µg/mL | 0.25 µg/mL | CC[C@H](C)[C@H](NC(=O)[C@@H]1C[C@@H](O)CN1C(=O)[C@@H](N)C(C)C)C(=O)N[C@@H]1C(=O)N[C@@H](Cc2ccc(O)cc2)C(=O)N[C@@H](CO)C(=O)N[C@@H](CC(N)=O)C(=O)N[C@@H](CCCNC(=N)N)C(=O)N[C@@H](CCN)C(=O)N[C@@H]([C@@H](C)O)C(=O)N[C@H](CCN)C(=O)N[C@@H](CCCCN)C(=O)N[C@@H](CCN)C(=O)N[C@@H](CCCNC(N)=O)C(=O)N[C@H](C(=O)N[C@@H](Cc2ccc(O)cc2)C(=O)O)CSSC1(C)C [Example 59, Val-Hyp-Ile-Pen-Tyr-Ser-Asn-Arg-Dab-Thr-^DDab-Lys-Dab-Cit-Cys-Tyr] (H-V[Hyp]I[Pen]YSNR[Dab]T[dDab]K[Dab][Cit]CY-OH; disulfide 4-15) | <1%
2 | 0.25 µg/mL | 1 µg/mL | 0.25 µg/mL | CC[C@H](C)[C@H](NC(=O)[C@@H]1C[C@@H](O)CN1C(=O)[C@@H](N)C(C)C)C(=O)N[C@@H]1C(=O)N[C@@H](Cc2ccc(O)cc2)C(=O)N[C@@H](CO)C(=O)N[C@@H](CC(N)=O)C(=O)N[C@@H](CCCNC(=N)N)C(=O)N[C@@H](CCN)C(=O)N[C@@H]([C@@H](C)O)C(=O)N[C@H](CCN)C(=O)N[C@@H](CCCCN)C(=O)N[C@@H](CCN)C(=O)N[C@@H](Cc2ccc(O)cc2)C(=O)N[C@H](C(=O)N[C@@H](Cc2ccc(O)cc2)C(=O)O)CSSC1(C)C [Example 60, Val-Hyp-Ile-Pen-Tyr-Ser-Asn-Arg-Dab-Thr-^DDab-Lys-Dab-Tyr-Cys-Tyr] (H-V[Hyp]I[Pen]YSNR[Dab]T[dDab]K[Dab]YCY-OH; disulfide 4-15) | <1%
3 | 0.25 µg/mL | 0.5 µg/mL | 0.25 µg/mL | CC[C@H](C)[C@H](NC(=O)[C@@H]1C[C@@H](O)CN1C(=O)[C@@H](N)C(C)C)C(=O)N[C@@H]1C(=O)N[C@@H](Cc2ccc(O)cc2)C(=O)N[C@@H](CO)C(=O)N[C@@H](CC(N)=O)C(=O)N[C@@H](CCCNC(=N)N)C(=O)N[C@@H](CCN)C(=O)N[C@@H]([C@@H](C)O)C(=O)N[C@H](CCN)C(=O)N[C@@H](CCCCN)C(=O)N[C@@H](CCN)C(=O)N[C@@H](CC(N)=O)C(=O)N[C@H](C(=O)N[C@@H](Cc2ccc(O)cc2)C(=O)O)CSSC1(C)C [Example 61, Val-Hyp-Ile-Pen-Tyr-Ser-Asn-Arg-Dab-Thr-^DDab-Lys-Dab-Asn-Cys-Tyr] (H-V[Hyp]I[Pen]YSNR[Dab]T[dDab]K[Dab]NCY-OH; disulfide 4-15) | <1%
4 | 0.0625 µg/mL | 0.25 µg/mL | 0.125 µg/mL | CC[C@H](C)[C@H](NC(=O)[C@@H]1C[C@@H](O)CN1C(=O)[C@@H](N)C(C)C)C(=O)N[C@@H]1C(=O)N[C@@H](Cc2ccc(O)cc2)C(=O)N[C@@H](CO)C(=O)N[C@@H](CC(N)=O)C(=O)N[C@@H](CCCNC(=N)N)C(=O)N[C@@H](CCN)C(=O)N[C@@H]([C@@H](C)O)C(=O)N[C@H](CCN)C(=O)N[C@@H](CCCCN)C(=O)N[C@@H](CCN)C(=O)N[C@@H](CCCCN)C(=O)N[C@H](C(=O)N[C@@H](Cc2ccc(O)cc2)C(=O)O)CSSC1(C)C [Example 62, Val-Hyp-Ile-Pen-Tyr-Ser-Asn-Arg-Dab-Thr-^DDab-Lys-Dab-Lys-Cys-Tyr] (H-V[Hyp]I[Pen]YSNR[Dab]T[dDab]K[Dab]KCY-OH; disulfide 4-15) | <1%
5 | 0.0625 µg/mL | 0.25 µg/mL | 0.125 µg/mL | CC[C@H](C)[C@H](NC(=O)[C@@H]1C[C@@H](O)CN1C(=O)[C@@H](N)C(C)C)C(=O)N[C@@H]1C(=O)N[C@@H](Cc2ccc(O)cc2)C(=O)N[C@@H](CO)C(=O)N[C@@H](CC(N)=O)C(=O)N[C@@H](CCCNC(=N)N)C(=O)N[C@@H](CCN)C(=O)N[C@@H]([C@@H](C)O)C(=O)N[C@H](CCN)C(=O)N[C@@H](CCCCN)C(=O)N[C@@H](CCN)C(=O)N[C@@H](CCNC(C)C)C(=O)N[C@H](C(=O)N[C@@H](Cc2ccc(O)cc2)C(=O)O)CSSC1(C)C [Example 63, Val-Hyp-Ile-Pen-Tyr-Ser-Asn-Arg-Dab-Thr-^DDab-Lys-Dab-Dab(iPr)-Cys-Tyr] (H-V[Hyp]I[Pen]YSNR[Dab]T[dDab]K[Dab][Dab(iPr)]CY-OH; disulfide 4-15) | <1%
6 | 0.0625 µg/mL | 0.125 µg/mL | 0.0625 µg/mL | CC[C@H](C)[C@H](NC(=O)[C@@H]1C[C@@H](O)CN1C(=O)[C@@H](N)C(C)C)C(=O)N[C@@H]1C(=O)N[C@@H](Cc2ccc(O)cc2)C(=O)N[C@@H](CO)C(=O)N[C@@H](CC(N)=O)C(=O)N[C@@H](CCCNC(=N)N)C(=O)N[C@@H](CCN)C(=O)N[C@@H]([C@@H](C)O)C(=O)N[C@H](CCN)C(=O)N[C@@H](CCCCN)C(=O)N[C@@H](CCN)C(=O)N[C@@H](CCCN)C(=O)N[C@H](C(=O)N[C@@H](Cc2ccc(O)cc2)C(=O)O)CSSC1(C)C [Example 64, Val-Hyp-Ile-Pen-Tyr-Ser-Asn-Arg-Dab-Thr-^DDab-Lys-Dab-Orn-Cys-Tyr] (H-V[Hyp]I[Pen]YSNR[Dab]T[dDab]K[Dab][Orn]CY-OH; disulfide 4-15) | <1%
7 | 0.0625 µg/mL | 0.25 µg/mL | 0.25 µg/mL | CC[C@H](C)[C@H](NC(=O)[C@@H]1C[C@@H](O)CN1C(=O)[C@@H](N)C(C)C)C(=O)N[C@@H]1C(=O)N[C@@H](Cc2ccc(O)cc2)C(=O)N[C@@H](CO)C(=O)N[C@@H](CC(N)=O)C(=O)N[C@@H](CCCNC(=N)N)C(=O)N[C@@H](CCN)C(=O)N[C@@H]([C@@H](C)O)C(=O)N[C@H](CCN)C(=O)N[C@@H](CCCCN)C(=O)N[C@@H](CCN)C(=O)N[C@@H](CCN)C(=O)N[C@H](C(=O)N[C@@H](CC2CCCCC2)C(=O)O)CSSC1(C)C [Example 65, Val-Hyp-Ile-Pen-Tyr-Ser-Asn-Arg-Dab-Thr-^DDab-Lys-Dab-Dab-Cys-Cha] (H-V[Hyp]I[Pen]YSNR[Dab]T[dDab]K[Dab][Dab]C[Cha]-OH; disulfide 4-15) | <1%
8 | 0.0625 µg/mL | 0.125 µg/mL | 0.0625 µg/mL | CC[C@H](C)[C@H](NC(=O)[C@@H]1C[C@@H](O)CN1C(=O)[C@@H](N)C(C)C)C(=O)N[C@@H]1C(=O)N[C@@H](Cc2ccc(O)cc2)C(=O)N[C@@H](CO)C(=O)N[C@@H](CC(N)=O)C(=O)N[C@@H](CCCNC(=N)N)C(=O)N[C@@H](CCN)C(=O)N[C@@H]([C@@H](C)O)C(=O)N[C@H](CCN)C(=O)N[C@@H](CCCCN)C(=O)N[C@@H](CCN)C(=O)N[C@@H](CCN)C(=O)N[C@H](C(=O)N[C@@H](Cc2c[nH]c3ccccc23)C(=O)O)CSSC1(C)C [Example 66, Val-Hyp-Ile-Pen-Tyr-Ser-Asn-Arg-Dab-Thr-^DDab-Lys-Dab-Dab-Cys-Trp] (H-V[Hyp]I[Pen]YSNR[Dab]T[dDab]K[Dab][Dab]CW-OH; disulfide 4-15) | <1%
9 | 0.0625 µg/mL | 0.125 µg/mL | 0.0625 µg/mL | CCCC[C@H](NC(=O)[C@@H]1CSSC(C)(C)[C@H](NC(=O)[C@@H](NC(=O)[C@@H]2C[C@@H](O)CN2C(=O)[C@@H](N)C(C)C)[C@@H](C)CC)C(=O)N[C@@H](Cc2ccc(O)cc2)C(=O)N[C@@H](CO)C(=O)N[C@@H](CC(N)=O)C(=O)N[C@@H](CCCNC(=N)N)C(=O)N[C@@H](CCN)C(=O)N[C@@H]([C@@H](C)O)C(=O)N[C@H](CCN)C(=O)N[C@@H](CCCCN)C(=O)N[C@@H](CCN)C(=O)N[C@@H](CCN)C(=O)N1)C(=O)O [Example 67, Val-Hyp-Ile-Pen-Tyr-Ser-Asn-Arg-Dab-Thr-^DDab-Lys-Dab-Dab-Cys-Nle] (H-V[Hyp]I[Pen]YSNR[Dab]T[dDab]K[Dab][Dab]C[Nle]-OH; disulfide 4-15) | <1%
10 | 0.03125 µg/mL | 0.125 µg/mL | 0.0625 µg/mL | CC[C@H](C)[C@H](NC(=O)[C@@H]1C[C@@H](O)CN1C(=O)[C@@H](NC(=N)N)C(C)C)C(=O)N[C@@H]1C(=O)N[C@@H](Cc2ccc(O)cc2)C(=O)N[C@@H]([C@@H](C)O)C(=O)N[C@@H](CC(N)=O)C(=O)N[C@@H](CCCNC(=N)N)C(=O)N[C@@H](CCN)C(=O)N[C@@H]([C@@H](C)O)C(=O)N[C@H](CCN)C(=O)N[C@@H](CCCCN)C(=O)N[C@@H](CCN)C(=O)N[C@@H](CCN)C(=O)N[C@H](C(=O)N[C@@H](Cc2ccc(O)cc2)C(=O)O)CSSC1(C)C [Example 68, Gua-Val-Hyp-Ile-Pen-Tyr-Thr-Asn-Arg-Dab-Thr-^DDab-Lys-Dab-Dab-Cys-Tyr] ({Val(Nα-amidino)}-[Hyp]I[Pen]YTNR[Dab]T[dDab]K[Dab][Dab]CY-OH; disulfide 3-14) | <1%
